According to patent US10688193B2, “PH-sensitive linkers for delivering a therapeutic agent” (GNT BIOTECH & MEDICALS CORPORATION, priority 2015, dated 2020):

Legend:
[1] = Cytotoxicity assay of Au/LKs/Dox complexes (MTS, 72 hours); assay type: cell-based; conditions: human, H184B5F5/M10 mammary epithelial cells; M10, 72 hrs; read-out: IC50 value for complex cytotoxicity
Experimental: (§1) We examined the cytotoxicity of Au/LKs/Dox complexes and the IC50 value was calculated. […] The CellTiter 96® AQueous One Solution Cell Proliferation Assay (MTS) reagent was purchased from Promega (Madison, Wis., USA) and the assay was performed according to the manufacturer's instructions. Absorbance was measured at 490 nm using a microplate reader (Bio-tek, Powerwave X340, Winooski, Vt., USA).

MDA-MB-453 = assay: as above; assay type: cell-based; conditions: Homo sapiens; MDA-MB-453, 72 hrs; read-out: IC50 value for complex cytotoxicity
Experimental: as §1

MDA-MB-231 breast tumors = assay: MDA-MB-231 breast tumor xenograft efficacy study; assay type: in vivo, BALB/c-nu/nu mice
Description: FIG. 6 (A) to (D) show the treatment of MDA-MB-231 breast tumors. (A) Net animal weight change (g) during the treatment. From the data, doxorubicin and Au/LKI-1/Dox was cause the weight loss over 20% and 3% in nude mice (N=3), respectively. […] (B) The inhibition of MDA-MD-231 breast tumor growth (N=3): Dox>Au/LKI-1/Dox>Au/PEG=PBS. (C) TEM images of MDA-MB-231 breast tumor cells treated with Au/LKI-1/Dox complex was easy determined the Au/LKI-1/Dox complex in the tumor in xenograft model. (D) Immunohistochemistry of tumor specimens. Breast tumor specimens were taken from the mice, embedded in paraffin and stained with hematoxylineosin.
BALB/c-nu/nu mice were purchased from BioLASCO Taiwan. Eight week old male mice were injected unilaterally with 1.0×10^7 MDA-MB-231 breast tumor cells in 200 μL of 50:50 Matrigel/Leibovitz's (L-15) into the dorsum by subcutaneous injection. (1) Vehicle-PBS (negative control), (2) Doxorubicin (positive control), 5 mg/kg, (3) Au/PEG, (4) Au/LKI-1/Dox complex, 5 mg/kg of Dox. Treatment was ongoing until clinical symptoms necessitated sacrifice. Mice were weighed a minimum of two times/weekly and were monitored tumor size until clinical symptoms necessitated sacrifice (see FIG. 6A, 6B). TEM images of MDA-MB-231 breast tumor cells treated with Au/LKI-1/Dox complex in xenograft model. […] (see FIG. 6C) H&E stain of MDA-MB-231 tumor cells treated with Au/LKI-1/Dox complex in xenograft model. (see FIG. 6D)

in vitro [2] = conditions: human, H184B5F5/M10 mammary epithelial cells
Description: (§2) After took photos, cells were counted by using hemocytometer.

in vitro [3] = conditions: human, MDA-MB-231 breast adenocarcinoma cells
Description: as §2

in vitro [4] = conditions: human, MCF7 breast adenocarcinoma cells
Description: as §2

in vitro [5] = conditions: human, MDA-MB-453 breast adenocarcinoma cells
Description: as §2

TNFα = TNFα (Homo sapiens, UniProt P01375); assay: Blocking of TNFα-induced MCF-7 cell apoptosis (MTS); assay type: cell-based; conditions: for Relative cell survival %: TNFα 12.5 ng/mL, MCF-7, 72 hours
Experimental: We further examined Au/LKI-1/ETA complex by binding with secondary antibody conjugated with 1-5 nm AuNPs. In TEM images of Au/LKI-1/ETA complex, binding of 1-5 nm gold-labeled secondary anti-human IgG antibodies to ETA located on the AuNP surface was observed (FIG. 4C). We further investigated the TNFα blocking ability of ETA and Au/LKI-1/ETA. MCF-7 cells (5×10^5) were treated with the mixtures of 12.5 ng/mL TNFα and 62.5, 125, 250, 500 ng/mL ETA or Au/LKI-1/ETA complex for 2 hours, respectively. The treated cells were incubated at 37° C. for 72 hours and then the cell numbers were counted by MTS [(3-(4,5-dimethylthiazol-2-yl)-5-(3-carboxymethoxyphenyl)-2-(4-sulfophenyl)-2H-tetrazolium)] assay. […] ETA and Au/LKI-1/ETA complex were used to test their abilities in blocking TNFα induced MCF-7 cell apoptosis, Table 4.

Chain of TNFα (P01375 77-233 limits assumed, species assumed): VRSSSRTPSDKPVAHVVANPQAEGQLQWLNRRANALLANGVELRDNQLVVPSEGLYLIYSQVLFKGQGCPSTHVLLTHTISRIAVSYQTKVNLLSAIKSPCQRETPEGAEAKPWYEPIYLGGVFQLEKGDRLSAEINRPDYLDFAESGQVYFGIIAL

| Compound | IC50 at 72 h (in vitro [2]) | IC50 at 72 h (in vitro [3]) | IC50 at 72 h (in vitro [4]) | IC50 at 72 h (in vitro [5]) | other results |
| --- | --- | --- | --- | --- | --- |
| COc1cccc2c1C(=O)c1c(O)c3c(c(O)c1C2=O)C[C@@](O)(C(=O)CO)C[C@@H]3O[C@H]1C[C@H](N)[C@H](O)[C@H](C)O1 [Dox, doxorubicin] | – | – | – | – | IC50 at 72 h [1]: 0.14 ± 0.034 µM; IC50 (MDA-MB-453): 0.65 ± 0.072 µM; inhibition of MDA-MB-231 breast tumor growth (rank order) (MDA-MB-231 breast tumors; N=3, 5 mg/kg of Dox): Dox>Au/LKI-1/Dox>Au/PEG=PBS; weight loss during the treatment (MDA-MB-231 breast tumors; nude mice (N=3), 5 mg/kg of Dox): over 20%; necrosis in tumor specimens (hematoxylin-eosin) (MDA-MB-231 breast tumors; xenograft tumors): more necrosis |
| NNC(=O)OCCOCCNC(=O)CCCCC1CCSS1 (centres unmarked) [Linker I-1] | 584 ± 62.7 µM | 529 ± 52.1 µM | 692 ± 51.9 µM | 299 ± 23 µM | – |
| NNC(=O)OCCNC(=O)CCCCC1CCSS1 (centres unmarked) [Linker I-2] | 686 ± 105 µM | 536 ± 21.6 µM | 730 ± 36.7 µM | 432 ± 96.6 µM | – |
| NNC(=O)OCCOCCOCCNC(=O)CCCCC1CCSS1 (centres unmarked) [Linker I-3] | 555 ± 33.5 µM | 454 ± 142 µM | 538 ± 39.6 µM | 333 ± 9.8 µM | – |
| NNC(=O)OCCOCCOCCOCCNC(=O)CCCCC1CCSS1 (centres unmarked) [Linker I-4] | 560 ± 45.1 µM | 576 ± 81.9 µM | 569 ± 14.1 µM | 342 ± 11 µM | – |
| NNC(=O)OCCOCCOCCOCCOCCOCCNC(=O)CCCCC1CCSS1 (centres unmarked) [Linker I-5] | 569 ± 54.7 µM | 484 ± 64.6 µM | 419 ± 23.8 µM | 460 ± 87.9 µM | – |
| NNC(=O)OCCNC(=O)CNC(=O)CCCCC1CCSS1 (centres unmarked) [Linker II-1] | 500 µM | 474 µM | 501 µM | > 800 µM | – |
| NNC(=O)OCCNC(=O)CNC(=O)CNC(=O)CCCCC1CCSS1 (centres unmarked) [Linker II-2] | > 800 µM | > 800 µM | > 800 µM | > 800 µM | – |
| NNC(=O)OCCNC(=O)CNC(=O)CNC(=O)CNC(=O)CCCCC1CCSS1 (centres unmarked) [Linker II-3] | 585 ± 132 µM | 428 ± 116 µM | > 800 µM | > 800 µM | – |
| NNC(=O)OCCOCCNC(=O)CCCCCS [Linker SHI-1] | > 800 µM | 559 ± 23.3 µM | > 800 µM | 128 ± 15.1 µM | – |
| NNC(=O)OCCOCCOCCOCCNC(=O)CCCCCS [Linker SHI-4] | > 800 µM | 533 ± 63.9 µM | > 800 µM | 130 ± 13.4 µM | – |
| Etanercept | – | – | – | – | TNFα blocking ability (TNFα; MCF-7 cells): TNFα blocking ability was observed; Relative cell survival % (TNFα; dose 62.5 ng/mL): 36.7 ± 1.4%; Relative cell survival % (TNFα; dose 125 ng/mL): 68.5 ± 2.3%; Relative cell survival % (TNFα; dose 250 ng/mL): 82.1 ± 6.5%; Relative cell survival % (TNFα; dose 500 ng/mL): 103.3 ± 0.9% |
